# Read-outs that look alike come from different tables or passages of the source.
# How the values were obtained:
# human PBM cells = assay: Cellular toxicity assay in human PBM cells; format: cell-based; settings: Human PBM cells
# Experimental: (§1) The toxicity of the compounds was assessed in Vero, human PBM, CEM (human lymphoblastoid), MT-2, and HepG2 cells, as described previously (see Schinazi R. F., Sommadossi J.-P., Saalmann V., Cannon D. L., Xie M.-Y., Hart G. C., Smith G. A. & Hahn E. F. Antimicrob. Agents Chemother. 1990, 34, 1061-67). Cycloheximide was included as positive cytotoxic control, and untreated cells exposed to solvent were included as negative controls. The cytotoxicity IC50 was obtained from the concentration-response curve using the median effective method described previously (see Chou T.-C. & Talalay P. Adv. Enzyme Regul. 1984, 22, 27-55; Belen'kii M. S. & Schinazi R. F. Antiviral Res. 1994, 25, 1-11).
# [1] = system: CEM (human lymphoblastoid) cells; assay: Cellular toxicity assay in CEM cells; format: cell-based
# Experimental: as §1
# Vero cells = assay: Cellular toxicity assay in Vero cells; format: cell-based
# Experimental: as §1
# [2] = Cellular toxicity assay in human PBM cells; format: cell-based; settings: read-out: Cytotoxicity, CC50
# Experimental: as §1
# [3] = Cellular toxicity assay in CEM cells; format: cell-based, human; settings: human, read-out: Cytotoxicity, CC50
# Experimental: as §1
# [4] = Cellular toxicity assay in Vero cells; format: cell-based; settings: African green monkey, read-out: Cytotoxicity, CC50
# Experimental: as §1
# [5] = system: HCV GT 1b replicon (Huh-7 cells); assay: HCV replicon assay; format: cell-based; settings: Hepatitis C virus, GT1B
# Experimental: (§2) The HCV replicon assay was carried out as described in Stuyver L et al., Ribonucleoside analogue that blocks replication or bovine viral diarrhea and hepatitis C viruses in culture. Antimicrob. Agents Chemother. 2003, 47, 244-254. Huh 7 Clone B cells containing HCV Replicon RNA were seeded in a 96-well plate at 5000 cells/well, and the compounds tested at 10 μM in triplicate immediately after seeding. Following five days incubation (37° C., 5% CO2), total cellular RNA was isolated by using versaGene RNA purification kit from Gentra. Replicon RNA and an internal control (TaqMan rRNA control reagents, Applied Biosystems) were amplified in a single step multiplex Real Time RT-PCR Assay. The antiviral effectiveness of the compounds was calculated by subtracting the threshold RT-PCR cycle of the test compound from the threshold RT-PCR cycle of the no-drug control (ΔCt HCV). A ACt of 3.3 equals a 1-log reduction (equal to 90% less starting material) in Replicon RNA levels. The cytotoxicity of the compounds was also calculated by using the ΔCt rRNA values. 2′-C-Me-C was used as the positive control. To determine EC90 and IC50 values (using methods described in Reed I J & Muench H, A simple method or estimating fifty percent endpoints. Am. J. Hyg. 27: 497, 1938), ΔCt: values were first converted into fraction of starting material (Applied Biosystems Handbook) and then were used to calculate the % inhibition.
# [6] = Cytotoxicity in HCV replicon assay (ΔCt rRNA); format: cell-based; settings: human, Huh-7 Clone B cells containing HCV GT 1b replicon RNA, Huh-7 cells
# Experimental: as §2, with “To determine EC90 and IC50 values (using methods described in Reed I J & Muench H, A simple method or estimating fifty percent endpoints. Am. J. Hyg. 27: 497, 1938), ΔCt: values were first converted into fraction of starting material (Applied Biosystems Handbook) and then were used to calculate the % inhibition.” left out
Structure (SMILES),% inhibition at maximum concentration evaluated (human PBM cells) [%],"CC50 (human PBM cells; read-out: Cytotoxicity, CC50) [µM]",% inhibition at maximum concentration evaluated [1],"CC50 ([1]; read-out: Cytotoxicity, CC50) [µM]",% inhibition at maximum concentration evaluated (Vero cells) [%],"CC50 (Vero cells; read-out: Cytotoxicity, CC50) [µM]",CC50 ([2]; Human PBM cells) [µM],CC50 [3] [µM],CC50 [4] [µM],"CC50 ([2]; human, human PBM cells) [µM]","EC50 ([5]; HCV GT 1b replicon, Huh-7 cells, read-out: EC50) [µM]","EC90 ([5]; HCV GT 1b replicon, Huh-7 cells, read-out: EC90) [µM]",CC50 ([3]; CEM lymphoblastoid cells) [µM],CC50 at 5 days [6] [µM],EC50 ([5]; Huh-7) [µM],EC90 ([5]; Huh-7) [µM]
O=c1ccn(C2OC(CO)C(O)C2(Cl)Cl)c(=O)[nH]1 (centres unmarked) [Compound 17],−11,> 100,−1.9%,> 100,1.4,> 100,–,–,–,–,–,–,–,–,–,–
"CC(C)OC(=O)[C@H](C)NP(=O)(OC[C@H]1O[C@@H](n2ccc(=O)[nH]c2=O)C(Cl)(Cl)[C@@H]1O)Oc1ccccc1 (stereo partly drawn) [Compound 18, (2S)-isopropyl 2-(((((2R,3R,5R)-4,4-dichloro-5-(2,4-dioxo-3,4-dihydropyrimidin-1(2H)-yl)-3-hydroxytetrahydrofuran-2-yl)methoxy)(phenoxy)phosphoryl)amino)propanoate]",25,–,17%,–,2.3,–,> 100,> 100,> 100,–,–,–,–,–,–,–
"Nc1ccn([C@@H]2O[C@H](CO)[C@@H](O)C2(Cl)Cl)c(=O)n1 [Compound 22, 4-amino-1-((2R,4R,5R)-3,3-dichloro-4-hydroxy-5-(hydroxymethyl)tetrahydrofuran-2-yl)pyrimidin-2(1H)-one]",82,–,87%,–,101,–,–,–,< 1,< 1,> 10,> 10,< 1,> 10,–,–
"CC(C)OC(=O)[C@H](C)NP(=O)(OC[C@H]1O[C@@H](n2ccc(N)nc2=O)C(Cl)(Cl)[C@@H]1O)Oc1ccccc1 (stereo partly drawn) [Compound 23, (2S)-isopropyl 2-(((((2R,3R,5R)-5-(4-amino-2-oxopyrimidin-1(2H)-yl)-4,4-dichloro-3-hydroxytetrahydrofuran-2-yl)methoxy)(phenoxy)phosphoryl)amino)propanoate]",91,–,(−86 @ 100) %,–,101,–,< 1,–,< 1,–,–,–,–,> 10,0.1 to 1,0.1 to 1

# Source: US20170334941A1, “2',2'-DIHALO NUCLEOSIDE ANALOGS FOR TREATMENT OF THE FLAVIVIRIDAE FAMILY OF VIRUSES AND CANCER” (COCRYSTAL PHARMA, INC., priority 2014, published 2017)
